Results taken from patent US8846929B2, “Substituted-quinoxaline-type piperidine compounds and the uses thereof” (priority 2007, dated 2014).

Biological target: human opioid receptor-like (ORL-1) (Homo sapiens (Human), UniProt P41146)
Assay: In vitro ORL-1 receptor [35S]GTPγS functional assay
Assay type: biochemical

human opioid receptor-like (ORL-1), sequence (P41146 whole entry): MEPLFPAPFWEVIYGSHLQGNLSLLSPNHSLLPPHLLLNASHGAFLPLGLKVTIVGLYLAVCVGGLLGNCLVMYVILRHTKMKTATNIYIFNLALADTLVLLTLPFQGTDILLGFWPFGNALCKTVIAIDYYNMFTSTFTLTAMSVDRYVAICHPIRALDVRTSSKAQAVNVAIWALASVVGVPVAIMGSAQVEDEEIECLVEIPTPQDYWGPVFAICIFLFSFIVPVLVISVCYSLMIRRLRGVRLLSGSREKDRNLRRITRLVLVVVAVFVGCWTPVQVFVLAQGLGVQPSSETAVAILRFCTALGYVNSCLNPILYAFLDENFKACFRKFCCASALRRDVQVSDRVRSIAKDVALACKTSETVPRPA

| SMILES | EC50 [nM] |
| --- | --- |
| CC(C)CC(C)N1[C@@H]2CCC[C@H]1C[C@@H](n1c(=O)c(C(=O)O)nc3ccccc31)C2 (stereo partly drawn) [compound 304] | 150 ± 6 |
| CS(=O)(=O)N[C@@H]1CCN(c2nc3ccccc3n(C3CCN(C4CCCCCCC4)CC3)c2=O)C1 [compound 66] | 108 ± 15.1 |
| COC(=O)C(CO)Nc1nc2ccccc2n(C2CCN(C3CCCCCCC3)CC2)c1=O (stereo not drawn) [compound 46] | 399 ± 56 |
| CSCCC(NC(=O)c1nc2ccccc2n([C@H]2C[C@H]3CC[C@@H](C2)N3C2CCCCCCC2)c1=O)C(=O)O (stereo partly drawn) [compound 309, 2-(4-((endo)-8-cyclooctyl-8-azabicyclo[3.2.1]octan-3-yl)-3-oxo-3,4-dihydroquinoxaline-2-carboxamido)-4-(methylthio)butanoic acid] | 659 ± 155 |
| CN(C)c1nc2ccccc2n(C2CCN(C3CCCCCCC3)CC2)c1=O [compound 2, 1-(1-cyclooctylpiperidin-4-yl)-3-(dimethylamino)quinoxalin-2(1H)-one] | 580 ± 92 |
| CC(C)CCC(C)N1[C@@H]2CCC[C@H]1C[C@@H](n1c(=O)c(C(=O)O)nc3ccccc31)C2 (stereo partly drawn) [compound 303] | 298 ± 23 |
| CC(NC(=O)c1nc2ccccc2n([C@H]2C[C@H]3CC[C@@H](C2)N3C2CCCCCCC2)c1=O)C(=O)O (stereo partly drawn) [compound 312, 2-(4-((endo)-8-cyclooctyl-8-azabicyclo[3.2.1]octan-3-yl)-3-oxo-3,4-dihydroquinoxaline-2-carboxamido)propanoic acid] | 138 ± 8.1 |
| CCOC(=O)c1nc2ccccc2n(C2CCN(C3CCCCCCC3)CC2)c1=O [compound 70, ethyl 4-(1-cyclooctylpiperidin-4-yl)-3-oxo-3,4-dihydroquinoxaline-2-carboxylate] | 788 ± 44 |
| O=C(O)c1ccc(CNC(=O)c2nc3ccccc3n([C@H]3C[C@H]4CC[C@@H](C3)N4C3CCCCCCC3)c2=O)cc1 [compound 314] | 453 ± 66 |
| O=C(Nc1ccc(=O)[nH]c1)c1nc2ccccc2n(C2CCN(C3CCCCCCC3)CC2)c1=O [compound 82] | 181 ± 9.8 |
| O=C(O)CC(NC(=O)c1nc2ccccc2n([C@H]2C[C@H]3CC[C@@H](C2)N3C2CCCCCCC2)c1=O)C(=O)O (stereo partly drawn) [compound 310, 2-(4-((endo)-8-cyclooctyl-8-azabicyclo[3.2.1]octan-3-yl)-3-oxo-3,4-dihydroquinoxaline-2-carboxamido)succinic acid] | 419 ± 62 |
| O=C(O)c1ccc(CNC(=O)c2nc3ccccc3n([C@H]3C[C@H]4CC[C@@H](C3)N4C3CCCCCCC3)c2=O)nc1 [compound 318, 6-((4-((endo)-8-cyclooctyl-8-azabicyclo[3.2.1]octan-3-yl)-3-oxo-3 ,4-dihydroquinoxaline-2-carboxamido)methyl)nicotinic acid] | 236 ± 13 |
| NC(=O)[C@@H]1CCCN1c1nc2ccccc2n(C2CCN(C3CCCCCCC3)CC2)c1=O [compound 42] | 543 ± 27 |
| CC(C)(C)OC(=O)N1CCN(c2nc3ccccc3n(C3CCN(C4CCCCCCC4)CC3)c2=O)CC1 [compound 8, tert-butyl 4-(4-(1-cyclooctylpiperidin-4-yl)-3-oxo-3,4-dihydroquinoxalin-2-yl)piperazine-1-carboxylate] | 4560 ± 1120 |
| NC(=O)C1CCCN(c2nc3ccccc3n(C3CCN(C4CCCCCCC4)CC3)c2=O)C1 (stereo not drawn) [compound 60] | 2140 ± 661 |
| CCOC(=O)CNc1nc2ccccc2n(C2CCN(C3CCCCCCC3)CC2)c1=O [compound 57] | 486 ± 34 |
| NC(=O)CNc1nc2ccccc2n(C2CCN(C34CC5CC(CC(C5)C3)C4)CC2)c1=O [compound 64] | 457 ± 90 |
| O=c1c(NCC(O)CO)nc2ccccc2n1C1CCN(C2CCCCCCC2)CC1 (stereo not drawn) [compound 25, 1-(1-cyclooctylpiperidin-4-yl)-3-(2,3-dihydroxypropylamino)quinoxalin-2(1H)-one] | 781 ± 26 |
| O=C(O)c1nc2ccccc2n([C@H]2C[C@H]3CC[C@@H](C2)N3C23CC4CC(CC2C4)C3)c1=O [compound 320] | 104 ± 7.8 |
| COC(=O)C1CCN(c2nc3ccccc3n(C3CCN(C4CCCCCCC4)CC3)c2=O)CC1 [compound 16] | 3750 ± 93 |

| SMILES | EC50 [nM] |
| --- | --- |
| CC(=O)N[C@@H]1CCN(c2nc3ccccc3n(C3CCN(C4CCCCCCC4)CC3)c2=O)C1 [compound 37] | 265 ± 31 |
| O=c1c(N2CC[C@H](O)C2)nc2ccccc2n1C1CCN(C2CCCCCCC2)CC1 [compound 68] | 478 ± 6.4 |
| O=c1c(NC[C@@H](O)CO)nc2ccccc2n1C1CCN(C23CC4CC(CC(C4)C2)C3)CC1 [compound 89] | 806 ± 85 |
| N=C(N)NCCNc1nc2ccccc2n(C2CCN(C3CCCCCCC3)CC2)c1=O [compound 26] | 109 ± 5.9 |
| CN(CC(O)CO)c1nc2ccccc2n(C2CCN(C3CCCCCCC3)CC2)c1=O (stereo not drawn) [compound 65] | 348 ± 22 |
| O=C(O)c1cccc(CNc2nc3ccccc3n([C@H]3C[C@H]4CC[C@@H](C3)N4C3CCCCCCC3)c2=O)c1 [compound 305] | 394 ± 53 |
| O=C(O)c1nc2ccccc2n([C@H]2C[C@H]3CCCC[C@@H](C2)N3C2/C=C\CCCCC2)c1=O (stereo partly drawn) [compound 359] | 134 ± 2.7 |
| COC(=O)[C@@H]1C[C@@H](O)CN1c1nc2ccccc2n(C2CCN(C3CCCCCCC3)CC2)c1=O [compound 28] | 1880 ± 285 |
| O=C(NOCc1ccccc1)c1nc2ccccc2n(C2CCN(C3CCCCCCC3)CC2)c1=O [compound 84] | 182 ± 22 |
| COC(=O)c1ccc2c(c1)CN(c1nc3ccccc3n(C3CCN(C4CCCCCCC4)CC3)c1=O)CC2 [compound 44] | 392 ± 6.6 |
| O=C(O)CN(CCNC(=O)c1nc2ccccc2n([C@H]2C[C@H]3CC[C@@H](C2)N3C23CC4CC(CC(C4)C2)C3)c1=O)CC(=O)O [compound 325] | 109 ± 14 |
| NC(=O)C1CCN(c2nc3ccccc3n(C3CCN(C4CCCCCCC4)CC3)c2=O)CC1 [compound 29] | 468 ± 81 |
| CCOC(=O)CN(C)c1nc2ccccc2n(C2CCN(C3CCCCCCC3)CC2)c1=O [compound 61] | 1230 ± 238 |
| COC(=O)[C@@H]1CCCN1c1nc2ccccc2n(C2CCN(C3CCCCCCC3)CC2)c1=O [compound 27] | 969 ± 89 |
| O=c1c(NC[C@H](O)CO)nc2ccccc2n1C1CCN(C2CCCCCCC2)CC1 [compound 55] | 421 ± 50 |
| O=C(O)c1nc2ccccc2n([C@H]2C[C@H]3CCC[C@@H](C2)N3C2C3CC4CC(C3)CC2C4)c1=O (stereo partly drawn) [compound 363] | 4090 ± 1160 |
| O=C1CN(c2nc3ccccc3n(C3CCN(C4CCCCCCC4)CC3)c2=O)CCN1 [compound 18, 1-(1-cyclooctylpiperidin-4-yl)-3-(3-oxopiperazin-1-yl)quinoxalin-2(1H)-one] | 1280 ± 84 |
| O=C(O)c1nc2ccccc2n([C@H]2C[C@H]3CCC[C@@H](C2)N3CCC2CCCCC2)c1=O [compound 372] | 214 ± 57 |
| CS(=O)(=O)NC1CCN(c2nc3ccccc3n(C3CCN(C4CCCCCCC4)CC3)c2=O)CC1 [compound 30] | 699 ± 19 |
| O=C(NCC(O)CO)c1nc2ccccc2n(C2CCN(C3CCCCCCC3)CC2)c1=O (stereo not drawn) [compound 79] | 703 ± 39 |

| SMILES | EC50 [nM] |
| --- | --- |
| CC(C)(C)OC(=O)NC1CCN(c2nc3ccccc3n(C3CCN(C4CCCCCCC4)CC3)c2=O)CC1 [compound 21] | 1470 ± 50 |
| CONC(=O)c1nc2ccccc2n(C2CCN(C3CCCCCCC3)CC2)c1=O [compound 83] | 558 ± 77 |
| CONC(=O)c1nc2ccccc2n([C@H]2C[C@H]3CC[C@@H](C2)N3C2CCCCCCC2)c1=O [compound 121] | 265 ± 27 |
| O=c1c(NC[C@@H](O)CO)nc2ccccc2n1C1CCN(C2CCCCCCC2)CC1 [compound 54] | 464 ± 28 |
| O=C(O)c1nc2ccc(F)cc2n([C@H]2C[C@H]3CC[C@@H](C2)N3C2CCCCCCC2)c1=O [compound 133] | 473 ± 27 |
| NCC(O)CNc1nc2ccccc2n(C2CCN(C3CCCCCCC3)CC2)c1=O (stereo not drawn) [compound 58] | 151 ± 7.9 |
| N#Cc1nc2ccccc2n(C2CCN(C3CCCCCCC3)CC2)c1=O [compound 88] | 201 ± 27 |
| CC(=O)N1CC2CN(c3nc4ccccc4n(C4CCN(C5CCCCCCC5)CC4)c3=O)CC2C1 (stereo not drawn) [compound 13, 3-(5-acetylhexahydropyrrolo[3,4-c]pyrrol-2(1H)-yl)-1-(1-cyclooctylpiperidin-4-yl)quinoxalin-2(1H)-one] | 1690 ± 166 |
| CC(=O)Nc1nc2ccccc2n(C2CCN(C3CCCCCCC3)CC2)c1=O [compound 17, N-(4-(1-cyclooctylpiperidin-4-yl)-3-oxo-3,4-dihydroquinoxalin-2-yl)acetamide] | 7870 ± 2230 |
| C=CCNc1nc2ccccc2n(C2CCN(C3CCCCCCC3)CC2)c1=O [compound 24, 3-(allylamino)-1-(1-cyclooctylpiperidin-4-yl)quinoxalin-2(1H)-one] | 611 ± 71 |
| CC(C)(C)OC(=O)Nc1nc2ccccc2n(C2CCN(C3CCCCCCC3)CC2)c1=O [compound 14, tert-butyl 4-(1-cyclooctylpiperidin-4-yl)-3-oxo-3,4-dihydroquinoxalin-2-ylcarbamate] | 4650 ± 238 |
| CC(=O)N1CCC(Nc2nc3ccccc3n(C3CCN(C4CCCCCCC4)CC3)c2=O)CC1 [compound 49] | 808 ± 110 |
| CC(=O)N[C@H]1CCN(c2nc3ccccc3n(C3CCN(C4CCCCCCC4)CC3)c2=O)C1 [compound 59] | 383 ± 63 |
| O=c1c(N2CC[C@@H](O)C2)nc2ccccc2n1C1CCN(C2CCCCCCC2)CC1 [compound 92] | 510 ± 100 |
| NC(=O)CNc1nc2ccccc2n(C2CCN(C3CCCCCCC3)CC2)c1=O [compound 32] | 406 ± 42 |
| O=c1c(N2Cc3ccccc3C2)nc2ccccc2n1C1CCN(C2CCCCCCC2)CC1 [compound 19, 1-(1-cyclooctylpiperidin-4-yl)-3-(isoindolin-2-yl)quinoxalin-2(1H)-one] | 286 ± 30 |
| CNC(=O)c1nc2ccccc2n(C2CCN(C3CCCCCCC3)CC2)c1=O [compound 78] | 363 ± 20 |
| O=C(O)C1CCCN1C(=O)c1nc2ccccc2n([C@H]2C[C@H]3CC[C@@H](C2)N3C2CCCCCCC2)c1=O (stereo partly drawn) [compound 306, 1-(4-((endo)-8-cyclooctyl-8-azabicyclo[3.2.1]octan-3-yl)-3-oxo-3,4-dihydroquinoxaline-2-carbonyl)pyrrolidine-2-carboxylic acid] | 548 ± 57 |
| NC(=O)CCNc1nc2ccccc2n(C2CCN(C3CCCCCCC3)CC2)c1=O [compound 47] | 419 ± 12.7 |
| O=C1CCN(c2nc3ccccc3n(C3CCN(C4CCCCCCC4)CC3)c2=O)N1 [compound 119, 1-(1-cyclooctylpiperidin-4-yl)-3-(3-oxopyrazolidin-1-yl)quinoxalin-2(1H)-one] | 3660 ± 171 |
